Source: US9580459B2, “Water-soluble ursodeoxycholic acid prodrugs” (Metselex, Inc., priority 2013, dated 2017)

Tests used:
primary rat hepatocytes [1] = experiment: TGFβ1-induced cytotoxicity (LDH release); type: cell-based; conditions: 100 μM, 12 hours, then 1 nmol/L TGF-β1 24 hours; alkaline phosphatase added for compound 19d; p<0.05
Procedure: To compare the in vitro cytoprotective effects of the new prodrugs with UDCA, an alcohol-linked phosphate prodrug (the 3-substituted prodrug compound 3) and the POMC prodrug compound 19d were evaluated for their ability to modulate TGFβ1-induced cytotoxicity. […] Therefore, AP was added to the culture medium whenever assessing the cytoprotective potential of compound 19d. The ability of compound 3 and compound 19d to inhibit TGFβ1-induced general cell death, as compared with UDCA were analyzed. […] Results are expressed as means±SEM of at least three different experiments (*p<0.01 from respective control; §p<0.05 from respective TGFβ). […] Similarly as before, UDCA, compound 3 and compound 19d, inhibited TGFβ1-induced cytotoxicity by about 40, 30 and 60%, respectively (p<0.05).
In another example, primary rat hepatocytes were isolated from male rats (100-150 g) by collagenase perfusion. Briefly, rats were anesthetized with phenobarbital sodium (100 mg/kg body weight) injected into the peritoneal cavity. […] Cell viability was determined by trypan blue exclusion and was typically 80-85%. […]
In another example, LDH, a stable cytosolic enzyme, is released to cell culture media following cell lysis, and can be used as a marker of cytotoxicity. […] Finally, absorbance was measured at 490 nm, with 690 nm as reference, using a Bio-Rad model 680-microplate reader (Bio-Rad Laboratories, Hercules, Calif.).

primary rat hepatocytes [2] = experiment: TGFβ1-induced loss of cellular viability (CellTiter-Fluor viability assay); type: cell-based; conditions: presence or absence of 3 U/ml alkaline phosphatase; preliminary results
[3] = stability in Tris glycine buffer without enzyme (31P NMR); type: physicochemical; conditions: 0.100 M Tris glycine buffer with 1.0 mM ZnCl2 and 1.0 mM MgCl2, 1 h, no enzyme
Procedure: Compound 19d (10.0 mg, 0.016 mmol) or compound 3 (8.7 mg, 0.016 mmol) was dissolved in 0.6 mL of a 0.100 M Tris glycine buffer solution containing 1.0 mM ZnCl2 and 1.0 mM MgCl2. […] 50 μL of the previously prepared AP stock solution was further diluted by addition to 0.950 mL of a 0.100 M Tris glycine buffer containing 1.0 mM ZnCl2 and 1.0 mM MgCl2. […] A series of 42 inverse-gated decoupled ^31P NMR's were taken (24 scans each, approximately one minute acquisition time). Conversion (%) was determined from the relative integration of the starting material and product peaks, NMR time stamps were used to determine time. Each experiment was repeated three times.

[4] = aqueous solubility of the prodrugs; type: physicochemical
Procedure: To obtain the 7-substituted phosphate ester prodrug of UDCA, benzyl ester 1 was treated with benzyl chloroformate and pyridine in dichloromethane as shown in FIG. 2. This led to a mixture of products, including 3-Cbz-protected alcohol (41%) (compound 4), 7-Cbz-protected alcohol (10%) (compound 5), and recovered starting material (41%). These products were readily separated by column chromatography, which allowed definitive confirmation of the regiochemistry of the prodrugs by ^1H NMR analysis, as the signal of the proton next to the Cbz-protected alcohol (Ha in FIG. 2) was a dddd in the major mono-substituted product (consistent with compound 4) and a ddd in the minor mono-substituted product (consistent with compound 5). Compound 4 was then converted into a 7-substituted phosphate ester prodrug (compound 7) using dibenzyl N,N-diethylphosphoramidite followed by oxidation with H2O2 and then Pd/C catalyzed debenzylation. Similar standard conditions converted compound 5 into the same 3-substituted phosphate ester prodrug (compound 3) that was obtained in FIG. 1. Both phosphate prodrugs (compound 3 and compound 7) were highly aqueously soluble, rapidly dissolving at all concentrations tested (up to 20 mg/mL), and were stable in solution for extended periods of time (>6 months) without any apparent decomposition. […]

[5] = target: T1, alkaline phosphatase from bovine intestinal mucosa (Bos taurus, UniProt P19111); experiment: alkaline phosphatase catalyzed activation monitored by inverse-gated decoupled 31P NMR; type: biochemical; conditions: in vitro, Tris glycine buffer
T1 construct: alkaline phosphatase from bovine intestinal mucosa; purchased Sigma-Aldrich P5521-2KU; host or cells: bovine intestinal mucosa (tissue-derived)
T1 sequence (P19111 20-506 limits assumed): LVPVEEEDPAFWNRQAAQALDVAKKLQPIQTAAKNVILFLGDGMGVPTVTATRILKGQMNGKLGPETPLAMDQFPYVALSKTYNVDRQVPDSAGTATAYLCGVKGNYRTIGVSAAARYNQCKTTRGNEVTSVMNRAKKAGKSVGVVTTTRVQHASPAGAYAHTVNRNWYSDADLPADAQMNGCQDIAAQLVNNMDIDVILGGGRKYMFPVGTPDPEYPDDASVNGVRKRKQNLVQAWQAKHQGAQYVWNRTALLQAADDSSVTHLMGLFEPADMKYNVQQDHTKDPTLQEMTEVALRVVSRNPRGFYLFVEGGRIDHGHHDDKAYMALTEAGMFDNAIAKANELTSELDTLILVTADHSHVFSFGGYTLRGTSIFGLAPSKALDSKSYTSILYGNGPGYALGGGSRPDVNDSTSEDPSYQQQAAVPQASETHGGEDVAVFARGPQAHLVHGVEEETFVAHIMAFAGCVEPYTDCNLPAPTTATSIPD
Procedure: To determine whether the POMC prodrug was indeed activated under in vitro conditions faster than a prodrug where the phosphate moiety is directly linked to an alcohol, a series of experiments were conducted monitoring the alkaline phosphatase catalyzed activation of the prodrugs compound 19d and compound 3 by inverse-gated decoupled ^31P NMR. […] Each data point represents the mean of three separate experiments±standard error of the mean (SEM).
In another example, alkaline phosphatase from bovine intestinal mucosa (P5521-2KU, Sigma-Aldrich, St. Louis, Mo.) was dissolved in 2.0 mL of a 0.100 M […] glycine buffer containing 1.0 mM ZnCl2 and 1.0 mM MgCl2. This stock solution was stored at 4° C. between uses.
Compound 19d (10.0 mg, 0.016 mmol) or compound 3 (8.7 mg, 0.016 mmol) was dissolved in 0.6 mL of a 0.100 M Tris glycine buffer solution containing 1.0 mM ZnCl2 and 1.0 mM MgCl2. […] 50 μL of the previously prepared AP stock solution was further diluted by addition to 0.950 mL of a 0.100 M Tris glycine buffer containing 1.0 mM ZnCl2 and 1.0 mM MgCl2. 10.0 μL of this diluted AP solution was added to the prodrug solution by syringe. […] Conversion (%) was determined from the relative integration of the starting material and product peaks, NMR time stamps were used to determine time. […]

| aqueous solubility [4] | Compound | inhibition of TGFβ1-induced cytotoxicity (LDH release) (primary rat hepatocytes [1]) | effect of alkaline phosphatase (AP) in the culture medium on cytoprotective properties (primary rat hepatocytes [2]) | decomposition by 31P NMR in buffer [3] | rate of release of UDCA by alkaline phosphatase (compared with compound 3) [5] |
| --- | --- | --- | --- | --- | --- |
|  | C[C@H](CCC(=O)O)[C@H]1CC[C@H]2[C@@H]3[C@@H](O)C[C@@H]4C[C@H](O)CC[C@]4(C)[C@H]3CC[C@]12C [UDCA, Ursodeoxycholic acid] | about 40% |  |  |  |
|  | C[C@H](CCC(=O)O)[C@H]1CC[C@H]2[C@@H]3[C@@H](O)C[C@@H]4C[C@H](OP(=O)([O-])[O-])CC[C@]4(C)[C@H]3CC[C@]12C.[Na+].[Na+] [compound 3, 3-(Phosphonatooxy)-ursodeoxycholic acid sodium salt] | ~30% | does not significantly change | Neither compound showed decomposition |  |
| ≥ 20 mg/mL | C[C@H](CCC(=O)O)[C@H]1CC[C@H]2[C@@H]3[C@@H](OP(=O)([O-])[O-])C[C@@H]4C[C@H](O)CC[C@]4(C)[C@H]3CC[C@]12C.[Na+].[Na+] [compound 7, 7-(Phosphonatooxy)-ursodeoxycholic acid sodium salt] |  |  |  |  |
|  | CC(CCC(=O)OCOP(=O)(O)O)C1CCC2C3C(O)CC4CC(O)CCC4(C)C3CCC12C (stereo not shown) [compound 19, ursodeoxycholic acid phosphonooxymethoxy ester] |  | required activation by exogenous alkaline phosphatase |  | faster |
